The supplement of paper PMC8149375

Key:
Details in all cases: treatment: drug + dasatinib (fixed dose, not stated); 5 days
[1] = tested on: ACHN; assay: AUC of dose-response viability curve, drug + dasatinib, normalised to DMSO (arbitrary (AUC of normalised viability)); higher = less growth inhibition
Experimental: (§1)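 Primary HTS combination arm: 8 RCC cell lines treated with 8 doses (up to 10 uM) of each library drug plus a fixed dose of dasatinib (dose not stated) for 5 days; viability read by CellTiter-Glo and normalised to DMSO. GI50 was fitted with XLfit, AUC is the area under the dose-response curve, and minimum viability is the lowest fraction of DMSO viability across doses.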

[2] = tested on: A498; assay: as above
Experimental: as §1

[3] = tested on: 786-O; assay: as above
Experimental: as §1

[4] = tested on: UO-31; assay: as above
Experimental: as §1

[5] = tested on: TK-10; assay: as above
Experimental: as §1

[6] = tested on: 769-P; assay: as above
Experimental: as §1

[7] = tested on: SN12C; assay: as above
Experimental: as §1

[8] = tested on: CAKI-1; assay: as above
Experimental: as §1

[9] = tested on: ACHN; assay: GI50 of drug in presence of dasatinib; higher = less potent
Experimental: as §1

[10] = tested on: 786-O; assay: as above
Experimental: as §1

[11] = tested on: UO-31; assay: as above
Experimental: as §1

[12] = tested on: SN12C; assay: as above
Experimental: as §1

[13] = tested on: CAKI-1; assay: as above
Experimental: as §1

[14] = tested on: ACHN; assay: minimum viability across doses, drug + dasatinib, relative to DMSO (fraction); higher = less growth inhibition
Experimental: as §1

[15] = tested on: A498; assay: as above
Experimental: as §1

[16] = tested on: 786-O; assay: as above
Experimental: as §1

[17] = tested on: UO-31; assay: as above
Experimental: as §1

[18] = tested on: TK-10; assay: as above
Experimental: as §1

[19] = tested on: 769-P; assay: as above
Experimental: as §1

[20] = tested on: SN12C; assay: as above
Experimental: as §1

[21] = tested on: CAKI-1; assay: as above
Experimental: as §1

[22] = tested on: A498; assay: GI50 of drug in presence of dasatinib; higher = less potent
Experimental: as §1

[23] = tested on: TK-10; assay: as above
Experimental: as §1

[24] = tested on: 769-P; assay: as above
Experimental: as §1

Compound	AUC of dose-response viability curve [1]	AUC of dose-response viability curve [2]	AUC of dose-response viability curve [3]	AUC of dose-response viability curve [4]	AUC of dose-response viability curve [5]	AUC of dose-response viability curve [6]	AUC of dose-response viability curve [7]	AUC of dose-response viability curve [8]	GI50 of drug [9] [nM]	GI50 of drug [10] [nM]	GI50 of drug [11] [nM]	GI50 of drug [12] [nM]	GI50 of drug [13] [nM]	minimum viability across doses [14]	minimum viability across doses [15]	minimum viability across doses [16]	minimum viability across doses [17]	minimum viability across doses [18]	minimum viability across doses [19]	minimum viability across doses [20]	minimum viability across doses [21]	GI50 of drug [22] [nM]	GI50 of drug [23] [nM]	GI50 of drug [24] [nM]
CO[C@H]1C[C@H]2CC[C@@H](C)[C@@](O)(O2)C(=O)C(=O)N2CCCC[C@H]2C(=O)O[C@H]([C@H](C)C[C@@H]2CC[C@H](OP(C)(C)=O)[C@H](OC)C2)CC(=O)[C@H](C)/C=C(\C)[C@@H](O)[C@@H](OC)C(=O)[C@H](C)C[C@H](C)/C=C/C=C/C=C/1C (stereo in doubt) [Deforolimus (Ridaforolimus)] + Cc1nc(Nc2ncc(C(=O)Nc3c(C)cccc3Cl)s2)cc(N2CCN(CCO)CC2)n1 [dasatinib]	1.18	1.95	1.11	1.39	1.98	1.71	1.67	1.38	4.36	< 3	28.6	25.6	16.8	0.263	0.493	0.287	0.257	0.4	0.397	0.407	0.295	–	–	–
CO[C@H]1CC2CC[C@@H](C)[C@@](O)(O2)C(=O)C(=O)N2CCCC[C@H]2C(=O)O[C@H]([C@H](C)C[C@@H]2CCC(OC(=O)C(C)(CO)CO)[C@H](OC)C2)CC(=O)[C@H](C)/C=C(\C)[C@@H](O)[C@@H](OC)C(=O)[C@H](C)C[C@H](C)/C=C/C=C/C=C/1C (stereo in doubt) [Temsirolimus (Torisel)] + Cc1nc(Nc2ncc(C(=O)Nc3c(C)cccc3Cl)s2)cc(N2CCN(CCO)CC2)n1 [dasatinib]	1.27	1.99	1.2	1.59	1.97	1.7	1.75	1.42	3.25	< 3	69.9	–	24.2	0.296	0.505	0.304	0.226	0.393	0.402	0.446	0.273	> 10000	512	–
O=C1NC(=O)/C(=C/c2ccc(-c3ccc(F)cc3O)o2)S1 + Cc1nc(Nc2ncc(C(=O)Nc3c(C)cccc3Cl)s2)cc(N2CCN(CCO)CC2)n1 [dasatinib]	2.15	3.96	2.08	3.97	2.51	2.41	2.41	2.4	> 10000	–	> 10000	> 10000	> 10000	0.567	1.06	0.449	1.02	0.649	0.532	0.651	0.628	> 10000	> 10000	> 10000
Cc1cnc(NC(=O)Nc2cc(Br)c(C)cc2OC[C@@H]2CNCCO2)cn1 + Cc1nc(Nc2ncc(C(=O)Nc3c(C)cccc3Cl)s2)cc(N2CCN(CCO)CC2)n1 [dasatinib]	1.21	2.99	1.43	3.07	2.01	1.71	2.27	1.71	36.9	172	833	2090	388	0.0412	0.0633	0.00234	0.00521	0.162	0.0737	0.113	0.0829	2120	559	–
C=CC(=O)N1CCC[C@@H](n2nc(-c3ccc(Oc4ccccc4)cc3)c3c(N)ncnc32)C1 + Cc1nc(Nc2ncc(C(=O)Nc3c(C)cccc3Cl)s2)cc(N2CCN(CCO)CC2)n1 [dasatinib]	1.61	4.62	2	3.83	1.83	1.72	2.28	2.18	81.4	–	8830	> 10000	3280	0.295	0.927	0.435	0.194	0.189	0.124	0.496	0.19	> 10000	264	212
CO[C@H]1C[C@@H]2CC[C@@H](C)[C@@](O)(O2)C(=O)C(=O)N2CCCC[C@H]2C(=O)O[C@H]([C@H](C)C[C@@H]2CC[C@@H](OCCO)[C@H](OC)C2)CC(=O)[C@H](C)/C=C(\C)[C@@H](O)[C@@H](OC)C(=O)[C@H](C)C[C@H](C)/C=C/C=C/C=C/1C [Everolimus (RAD001)] + Cc1nc(Nc2ncc(C(=O)Nc3c(C)cccc3Cl)s2)cc(N2CCN(CCO)CC2)n1 [dasatinib]	1.06	2.43	1.06	1.79	1.95	1.75	1.93	1.7	< 3	< 3	231	> 10000	117	0.225	0.645	0.253	0.396	0.426	0.416	0.489	0.353	> 10000	–	–
COc1cc2ncnc(Nc3ccc(F)c(Cl)c3)c2cc1OCCCN1CCOCC1 [Gefitinib (Iressa)] + Cc1nc(Nc2ncc(C(=O)Nc3c(C)cccc3Cl)s2)cc(N2CCN(CCO)CC2)n1 [dasatinib]	1.56	3.49	2.56	2.9	2.22	1.72	2.49	2.08	85.7	> 10000	6180	> 10000	1730	0.187	0.808	0.56	0.3	0.267	0.177	0.588	0.169	> 10000	1070	–
Cl.Cl.NC1(c2ccc(-c3nc4ccn5c(=O)[nH]nc5c4cc3-c3ccccc3)cc2)CCC1 [MK-2206 dihydrochloride] + Cc1nc(Nc2ncc(C(=O)Nc3c(C)cccc3Cl)s2)cc(N2CCN(CCO)CC2)n1 [dasatinib]	1.45	2.94	2.02	2.61	2.1	2.05	2.18	1.69	24.1	2410	1740	> 10000	111	0.202	0.755	0.224	0.0262	0.263	0.234	0.551	0.102	> 10000	1110	–
Cc1cn(-c2cc(NC(=O)c3ccc(C)c(Nc4nccc(-c5cccnc5)n4)c3)cc(C(F)(F)F)c2)cn1 [Nilotinib (AMN-107)] + Cc1nc(Nc2ncc(C(=O)Nc3c(C)cccc3Cl)s2)cc(N2CCN(CCO)CC2)n1 [dasatinib]	2	3.37	2.77	3.2	2.53	1.98	2.55	2.38	2890	> 10000	4880	> 10000	7790	0.461	0.811	0.717	0.262	0.524	0.331	0.687	0.491	> 10000	> 10000	–
CO[C@H]1C[C@@H]2CC[C@@H](C)[C@@](O)(O2)C(=O)C(=O)N2CCCC[C@H]2C(=O)O[C@H]([C@H](C)C[C@@H]2CC[C@@H](O)[C@H](OC)C2)CC(=O)[C@H](C)/C=C(\C)[C@@H](O)[C@@H](OC)C(=O)[C@H](C)C[C@H](C)/C=C/C=C/C=C/1C [Rapamycin (Sirolimus)] + Cc1nc(Nc2ncc(C(=O)Nc3c(C)cccc3Cl)s2)cc(N2CCN(CCO)CC2)n1 [dasatinib]	1.03	2.01	0.989	1.15	1.76	1.59	1.68	1.11	< 3	< 3	< 3	< 3	< 3	0.247	0.52	0.26	0.277	0.445	0.389	0.451	0.256	1050	–	–
COc1cc(N2CCC(N3CCN(C)CC3)CC2)ccc1Nc1ncc(Cl)c(Nc2ccccc2S(=O)(=O)C(C)C)n1 [TAE684 (NVP-TAE684)] + Cc1nc(Nc2ncc(C(=O)Nc3c(C)cccc3Cl)s2)cc(N2CCN(CCO)CC2)n1 [dasatinib]	1.15	2.64	1.55	2.04	2.06	1.83	1.82	1.51	37.3	< 3	–	427	224	0.0286	0.348	0.0739	0.0115	0.206	0.23	0.0423	0.0167	2870	640	–
C=CC(=O)Nc1cccc(Oc2nc(Nc3ccc(N4CCN(C)CC4)cc3OC)ncc2Cl)c1 [WZ4002] + Cc1nc(Nc2ncc(C(=O)Nc3c(C)cccc3Cl)s2)cc(N2CCN(CCO)CC2)n1 [dasatinib]	1.37	3.2	2.22	2.67	1.97	2.02	2.29	1.87	74.8	2490	1340	2420	1180	0.0147	0.459	0.405	0.0152	0.0404	0.2	0.0353	0.145	9590	617	–
